Reference: publication PMC3230598, “Structural Studies of β-Carbonic Anhydrase from the Green Alga Coccomyxa: Inhibitor Complexes with Anions and Acetazolamide” (PLoS ONE, 2011)

Key:
Co-CA (Coccomyxa β-CA) = target: T1, Co-CA (Coccomyxa β-CA) (Coccomyxa sp. PA, UniProt Q96554); assay: X-ray crystal structure of co-crystal, […] Å; type: binding; conditions: 15 mM NaSCN, 1.8 M NaKPO4 pH 7.2; N bound to active-site zinc (2.0 Å); also at dimer interface
T1 construct: zinc enzyme, homotetramer (dimer of dimers); residues 6-227 modelled

[1] = target: the molecule itself; assay: crystal structure; Co-CA at ~35 mg/ml in 10 mM Tris-HCl pH 7.4, hanging drop at 18°C, 1.6-2.3 M Na,KPO4 pH 7.2, with acetazolamide, phosphate, thiocyanate, azide or iodide; space group P43212; one dimer in the asymmetric unit, tetramer by a crystallographic 2-fold

Molecule | X-ray crystal structure of co-crystal, 2.5 Å (Co-CA (Coccomyxa β-CA)) | stoichiometry N [1]
N#CS [SCN, thiocyanate] | Azide and thiocyanate ions in the active site of Co-CA were clearly defined | 
β-carbonic anhydrase from Coccomyxa sp. (enzyme, UniProt Q96554 1-227, looked up, β-carbonic anhydrase of Coccomyxa sp., 227 amino acids, GenBank AAC33484.1; Met-1 to Asp-5 not seen in the electron density, models hold residues 6-227; One zinc ion per monomer; crystallised with acetazolamide, phosphate, thiocyanate, azide or iodide; also called Co-CA; Coccomyxa β-CA; source: E. coli, over-expressed, purified (amylose-resin column, Q-Sepharose Fast Flow)) MSAKDTADLSPLLEANRKWADECAAKDSTYFSKVAGSQAPEYLYIGCADSRVSPAQLFNMAPGEVFVQRNVGNLVSNKDLNCMSCLEYTVDHLKIKHILVCGHYNCGACKAGLVWHPKTAGVTNLWISDVREVRDKNAAKLHGLSADDAWDKMVELNVEAQVFNVCASPIVQAAWARGQPLSVHGIVYTPGTGLVKELIKPITGMEDAGALLRADLKQHCFFSESLA |  | 4
